Experimental data taken from US20250064941A1, “SIGLEC LIGANDS, CONJUGATES, AND METHODS OF USE THEREOF” (Osprey Biopharmaceuticals, Inc., priority 2023, published 2025).

Experiments:
[1] = molecular target: T1, mouse Siglec-2-Fc-Avi (CD22) (Mus musculus, UniProt P35329); test: SPR binding affinity to mouse CD22; conditions: steady-state analysis
T1 construct: made in house
T1 sequence (P35329 22-708 limits assumed): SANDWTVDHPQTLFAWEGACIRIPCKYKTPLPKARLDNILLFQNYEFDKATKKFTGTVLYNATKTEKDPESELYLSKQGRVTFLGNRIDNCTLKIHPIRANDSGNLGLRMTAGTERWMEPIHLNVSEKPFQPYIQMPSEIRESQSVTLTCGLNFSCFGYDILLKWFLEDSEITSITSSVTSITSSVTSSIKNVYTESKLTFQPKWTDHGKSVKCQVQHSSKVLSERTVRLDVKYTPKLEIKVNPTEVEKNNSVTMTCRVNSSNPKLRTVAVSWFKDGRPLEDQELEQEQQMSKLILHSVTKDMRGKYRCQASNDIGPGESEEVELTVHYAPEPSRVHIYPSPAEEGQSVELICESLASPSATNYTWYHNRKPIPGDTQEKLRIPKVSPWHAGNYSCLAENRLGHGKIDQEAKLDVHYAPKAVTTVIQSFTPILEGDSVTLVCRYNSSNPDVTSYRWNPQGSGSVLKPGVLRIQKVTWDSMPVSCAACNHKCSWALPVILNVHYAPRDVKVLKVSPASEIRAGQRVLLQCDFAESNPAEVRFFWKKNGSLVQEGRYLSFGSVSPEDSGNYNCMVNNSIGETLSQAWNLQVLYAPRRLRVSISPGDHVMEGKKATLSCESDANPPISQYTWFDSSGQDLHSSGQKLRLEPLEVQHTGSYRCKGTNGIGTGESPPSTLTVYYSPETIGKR
How it was run: (§1)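 Using a Biacore 8K, compounds were tested against biotinylated CD22 captured after sialidase treatment. The running buffer held 1% DMSO, corrected with a 0.5–2% DMSO series. Affinity was derived by steady-state analysis.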

[2] = molecular target: T2, human Siglec-2/CD22 protein (Homo sapiens, UniProt P20273); test: SPR binding affinity to human CD22; conditions: steady-state analysis
T2 construct: purchased Acro Biosystems SI2-H82E3
T2 sequence (P20273 20-847): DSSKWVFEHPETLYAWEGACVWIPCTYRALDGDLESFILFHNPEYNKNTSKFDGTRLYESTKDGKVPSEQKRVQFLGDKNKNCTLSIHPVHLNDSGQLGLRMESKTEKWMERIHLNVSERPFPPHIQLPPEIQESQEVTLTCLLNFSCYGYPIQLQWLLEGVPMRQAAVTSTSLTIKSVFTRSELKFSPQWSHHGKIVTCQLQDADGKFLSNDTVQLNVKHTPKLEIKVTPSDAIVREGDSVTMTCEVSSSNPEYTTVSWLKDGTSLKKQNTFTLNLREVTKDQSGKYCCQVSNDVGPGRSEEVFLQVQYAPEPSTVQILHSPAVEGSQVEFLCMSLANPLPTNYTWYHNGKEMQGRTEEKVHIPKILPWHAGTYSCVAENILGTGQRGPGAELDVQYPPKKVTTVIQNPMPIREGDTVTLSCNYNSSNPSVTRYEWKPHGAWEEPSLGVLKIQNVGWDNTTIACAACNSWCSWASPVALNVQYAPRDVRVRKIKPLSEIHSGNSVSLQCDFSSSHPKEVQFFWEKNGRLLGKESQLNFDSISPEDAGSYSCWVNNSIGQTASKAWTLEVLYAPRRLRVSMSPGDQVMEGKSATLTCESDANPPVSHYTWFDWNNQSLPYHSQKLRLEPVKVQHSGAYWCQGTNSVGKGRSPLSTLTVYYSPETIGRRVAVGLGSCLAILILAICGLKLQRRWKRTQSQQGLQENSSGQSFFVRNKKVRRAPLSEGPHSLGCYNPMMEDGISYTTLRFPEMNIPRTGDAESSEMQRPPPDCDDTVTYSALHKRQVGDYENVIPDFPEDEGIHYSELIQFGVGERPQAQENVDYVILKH
How it was run: as §1

cynomolgus Siglec-2/CD22 = cynomolgus Siglec-2/CD22 (Macaca fascicularis, UniProt A0A2K5WCZ6); test: biochemical; format: binding; conditions: SPR, steady-state analysis; read-out: Affinity cyno CD22
How it was run: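 Compound binding measured by steady-state SPR analysis, 120 s dissociation, in HEPES-NaCl-Tween buffer pH 7.5 containing 1% DMSO, DMSO solvent-corrected. Surface: cyno CD22, sialic acids first stripped by SialoExo for 4 h at 37° C., then amine-coupled onto CM5.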

Sequence of cynomolgus Siglec-2/CD22 (A0A2K5WCZ6 entry or part of it): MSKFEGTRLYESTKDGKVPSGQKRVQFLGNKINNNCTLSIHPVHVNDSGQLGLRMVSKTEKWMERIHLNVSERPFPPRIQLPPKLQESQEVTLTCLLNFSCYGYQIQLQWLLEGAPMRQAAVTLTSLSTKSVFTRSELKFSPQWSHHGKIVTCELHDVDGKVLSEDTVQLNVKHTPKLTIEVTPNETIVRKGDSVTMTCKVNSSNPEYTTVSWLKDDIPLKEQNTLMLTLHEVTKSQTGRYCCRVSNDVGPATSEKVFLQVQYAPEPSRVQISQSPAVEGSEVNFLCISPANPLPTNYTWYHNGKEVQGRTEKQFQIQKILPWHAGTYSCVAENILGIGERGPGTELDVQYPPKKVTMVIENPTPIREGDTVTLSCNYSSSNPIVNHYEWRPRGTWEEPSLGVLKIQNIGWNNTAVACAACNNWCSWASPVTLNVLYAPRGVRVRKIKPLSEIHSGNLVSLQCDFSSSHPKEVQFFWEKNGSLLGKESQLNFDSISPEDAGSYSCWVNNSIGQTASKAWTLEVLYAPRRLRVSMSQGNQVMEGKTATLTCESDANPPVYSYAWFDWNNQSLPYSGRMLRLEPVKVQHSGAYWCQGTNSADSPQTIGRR

Kd [1] [nM]	Kd [2] [nM]	Kd (cynomolgus Siglec-2/CD22) [nM]	SMILES
1000 to 10000	1000 to 10000	1000 to 10000	CC(=O)NCCOCCOCCOCCOCCC(=O)NCCOCCOCCO[C@]1(C(=O)O)C[C@H](O)[C@@H](NC(=O)CO)[C@H]([C@H](O)[C@H](O)CNC(=O)Cc2ccc(-c3ccccc3)cc2)O1 [Compound 236, (2R,4S,5R,6R)-6-((1R,2R)-3-(2-([1,1′-biphenyl]-4-yl)acetamido)-1,2-dihydroxypropyl)-2-((2,18-dioxo-6,9,12,15,22,25-hexaoxa-3,19-diazaheptacosan-27-yl)oxy)-4-hydroxy-5-(2-hydroxyacetamido) tetrahydro-2H-pyran-2-carboxylic acid]
< 1000	< 1000	< 1000	C#CCN(CC(=O)O)C(=O)CCCCCO[C@]1(C(=O)O)C[C@H](O)[C@@H](NC(=O)CO)[C@H]([C@H](O)[C@H](O)CNC(=O)Cc2ccc(Cl)cc2)O1 [Compound 100, (2R,4S,5R,6R)-2-((6-((carboxymethyl)(prop-2-yn-1-yl)amino)-6-oxohexyl)oxy)-6-((1R,2R)-3-(2-(4-chlorophenyl)acetamido)-1,2-dihydroxypropyl)-4-hydroxy-5-(2-hydroxyacetamido)tetrahydro-2H-pyran-2-carboxylic acid]
< 1000	< 1000	< 1000	C#CCNC(=O)c1ccc(CS[C@]2(C(=O)O)C[C@H](O)[C@@H](NC(=O)CO)[C@H]([C@H](O)[C@H](O)CNC(=O)Cc3ccc(Cl)cc3)O2)cc1 [Compound 187, (2S,4S,5R,6R)-6-((1R,2R)-3-(2-(4-chlorophenyl)acetamido)-1,2-dihydroxypropyl)-4-hydroxy-5-(2-hydroxyacetamido)-2-((4-(prop-2-yn-1-ylcarbamoyl)benzyl)thio)tetrahydro-2H-pyran-2-carboxylic acid]
1000 to 10000	1000 to 10000	1000 to 10000	C#CCOCCCCCCO[C@]1(C(=O)O)C[C@H](O)[C@@H](NC(=O)NCC2CC2)[C@H]([C@H](O)[C@H](O)CNC(=O)Cc2ccc(Cl)cc2)O1 [Compound 94, (2R,4S,5R,6R)-6-((1R,2R)-3-(2-(4-chlorophenyl)acetamido)-1,2-dihydroxypropyl)-5-(3-(cyclopropylmethyl)ureido)-4-hydroxy-2-((6-(prop-2-yn-1-yloxy)hexyl)oxy)tetrahydro-2H-pyran-2-carboxylic acid]

Second part, the molecule before the results:

SMILES	Kd [1] [nM]	Kd [2] [nM]	Kd (cynomolgus Siglec-2/CD22) [nM]
C#CCOCCOCCO[C@]1(C(=O)O)C[C@H](O)[C@@H](NC(=O)CO)[C@H]([C@H](O)[C@H](O)CNC(=O)c2ccc(O)cc2)O1 [Compound 198, (2R,4S,5R,6R)-6-((1R,2R)-1,2-dihydroxy-3-(4-hydroxybenzamido)propyl)-4-hydroxy-5-(2-hydroxyacetamido)-2-(2-(2-(prop-2-yn-1-yloxy)ethoxy)ethoxy)tetrahydro-2H-pyran-2-carboxylic acid]	> 10000	> 10000	> 10000
C#CCOc1ccc(CO[C@]2(C(=O)O)C[C@H](O)[C@@H](NC(=O)CO)[C@H]([C@H](O)[C@H](O)CNC(=O)Cc3ccccc3O)O2)cc1 [Compound 145, (2R,4S,5R,6R)-6-((1R,2R)-1,2-dihydroxy-3-(2-(2-hydroxyphenyl)acetamido)propyl)-4-hydroxy-5-(2-hydroxyacetamido)-2-((4-(prop-2-yn-1-yloxy)benzyl)oxy)tetrahydro-2H-pyran-2-carboxylic acid]	1000 to 10000	1000 to 10000	1000 to 10000
C#CCOc1ccc(CO[C@]2(C(=O)O)C[C@H](O)[C@@H](NC(=O)CO)[C@H]([C@H](O)[C@H](O)CNC(=O)Cc3ccc(-c4ccc(O)cc4)cc3C)O2)cc1 [Compound 56, (2R,4S,5R,6R)-6-((1R,2R)-1,2-dihydroxy-3-(2-(4′-hydroxy-3-methyl-[1,1′-biphenyl]-4-yl)acetamido)propyl)-4-hydroxy-5-(2-hydroxyacetamido)-2-((4-(prop-2-yn-1-yloxy)benzyl)oxy)tetrahydro-2H-pyran-2-carboxylic acid]	< 1000	< 1000	1000 to 10000
